From ChEMBL document CHEMBL3232786, “Therapeutic utility of cannabinoid receptor type 2 (CB(2)) selective agonists” (J Med Chem, 2013) come the findings set out here.

Where only a bound is given, the exact number is not on record here.

For series [1], the species on record is Rattus norvegicus. The series can be described thus: Selectivity ratio of Ki for CB2 receptor of rat spleen membranes to Ki for CB1 receptor of rat cerebellar membranes. Format: tissue-based.
Series [2] has as its target T1, Cannabinoid receptor 1 (Rattus norvegicus, UniProt P20272). The series can be described thus: Displacement of [3H]-CP55940 from CB1 receptor of rat cerebellar membranes by liquid scintillation counting in presence of serine protease inhibitor PMSF. Set-up: species or system Cerebellum, Membrane. In general terms: Displacement assays read how much labelled ligand stays bound in the presence of the test substance.

In series [3] the target is T2, Cannabinoid receptor 2 (Rattus norvegicus, UniProt Q9QZN9).
T2 sequence (Q9QZN9 whole entry): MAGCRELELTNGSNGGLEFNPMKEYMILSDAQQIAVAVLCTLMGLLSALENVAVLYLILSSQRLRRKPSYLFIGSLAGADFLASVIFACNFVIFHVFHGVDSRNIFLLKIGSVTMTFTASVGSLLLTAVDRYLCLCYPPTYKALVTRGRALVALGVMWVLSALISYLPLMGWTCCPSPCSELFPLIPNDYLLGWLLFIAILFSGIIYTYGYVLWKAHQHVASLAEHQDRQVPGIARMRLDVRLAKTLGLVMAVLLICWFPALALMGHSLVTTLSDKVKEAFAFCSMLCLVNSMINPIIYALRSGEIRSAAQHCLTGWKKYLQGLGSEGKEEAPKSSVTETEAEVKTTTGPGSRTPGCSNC
Description: Displacement of [3H]-CP55940 from CB2 receptor of rat spleen membranes by liquid scintillation counting in presence of serine protease inhibitor PMSF. It is filed as tissue-based, Membrane.

For series [4], the target named is T3, Cannabinoid receptor 1 (Homo sapiens, UniProt P21554). The series can be described thus: Agonist activity at CB1 receptor (unknown origin).
In series [5] the target is T3, Cannabinoid receptor 1. Description: Agonist activity at human CB1 receptor assessed as inhibition of forskolin-induced cAMP production preincubated for 15 mins followed by forskolin challenge measured after 30 mins by HTRF assay. It is filed as functional. (In general: cAMP levels reflect the balance of adenylyl cyclase and phosphodiesterase activity.)
In series [6] the target is T4, Cannabinoid receptor 2 (Homo sapiens, UniProt P34972). Description: Agonist activity at human CB2 receptor expressed in Saccharomyces cerevisiae MMY23 using fluorescein di-beta-D-glucopyranoside as substrate after 24 hrs by fluorescence-based assay.
The target in series [7] is T3, Cannabinoid receptor 1. Description: Binding affinity to CB1 receptor (unknown origin).
Series [8] has as its target T3, Cannabinoid receptor 1. Description: Displacement of [3H]-CP55940 from human CB1 receptor expressed in HEK293 cells after 90 mins by liquid scintillation counting. Format: cell-based.
Series [9] concerns the target T4, Cannabinoid receptor 2. Description: Displacement of [3H]-CP55940 from human CB2 receptor expressed in HEK293 cells after 90 mins by liquid scintillation counting. It is filed as cell-based.
Series [10] concerns the target T4, Cannabinoid receptor 2. The series can be described thus: Binding affinity to CB2 receptor (unknown origin).
Series [11] concerns the target T4, Cannabinoid receptor 2. The series can be described thus: Agonist activity at human CB2 receptor transfected in CHO-K1 cells assessed as cAMP change. Format: functional, cell-based.
For series [12], the species on record is Homo sapiens. Description: Selectivity ratio of Ki for human CB1 receptor to Ki for human CB2 receptor.
Series [13] concerns Mus musculus. Description: Antinociceptive activity against iv dosed ICR mouse measured at 20 mins by tail flick test. It is filed as functional. For orientation: Thermal pain tests record how soon the animal reacts.
Series [14] has as its target T3, Cannabinoid receptor 1. Description: Agonist activity at human CB1 receptor expressed in human SK-N-MC cells by CRE-beta galactosidase reporter gene assay. It is filed as functional, cell-based.
For series [15], the target named is T4, Cannabinoid receptor 2. The series can be described thus: Agonist activity at human CB2 receptor expressed in human SK-N-MC cells by CRE-beta galactosidase reporter gene assay. Format: functional, cell-based.
Series [16] has as its target T4, Cannabinoid receptor 2. The series can be described thus: Agonist activity at human CB2 receptor assessed as inhibition of forskolin-induced cAMP production preincubated for 15 mins followed by forskolin challenge measured after 30 mins by HTRF assay. It is filed as functional.
Series [17] is described as follows: Selectivity ratio of Ki for rat CB1 receptor to Ki for human CB2 receptor.
The target in series [18] is T1, Cannabinoid receptor 1. Description: Binding affinity to rat CB1 receptor.
Series [19] concerns the target T4, Cannabinoid receptor 2. Description: Binding affinity to human CB2 receptor.
The target in series [20] is T4, Cannabinoid receptor 2. Description: Agonist activity at human CB2 receptor expressed in Sf9 membranes assessed as effect on [35S]-GTPgammaS binding after 30 mins by scintillation counting. Format: functional, cell membranes.
Series [21] can be described thus: Half life in Sprague-Dawley rat at 10 mg/kg, po by UV-HPLC analysis. Conditions: in vivo. Further details: dose 10 mg/kg, route oral. It is filed as ADME, organism-based.
Series [22] in a line: Cmax in Sprague-Dawley rat at 10 mg/kg, po by UV-HPLC analysis. It is filed as ADME, organism-based. Further details: dose 10 mg/kg, route oral. The following applies: in vivo.
Series [23] in a line: AUC (0 to infinity) in Sprague-Dawley rat at 10 mg/kg, po by UV-HPLC analysis. The following applies: plasma. It is filed as ADME, organism-based. Further details: time infinity, dose 10 mg/kg, route oral.
Series [24] addresses T3, Cannabinoid receptor 1. The series can be described thus: Binding affinity to human CB1 receptor.
Series [25] addresses T3, Cannabinoid receptor 1. Description: Displacement of [3H]-CP55940 from human CB1 receptor expressed in CHO-K1 cells by liquid scintillation counting. It is filed as cell-based. The following applies: read-out: EC50 (the source's name).
The target of series [26] is T4, Cannabinoid receptor 2. Description: Displacement of [3H]-CP55940 from human CB2 receptor expressed in CHO-K1 cells by liquid scintillation counting. It is filed as cell-based.

T4 sequence (P34972 whole entry): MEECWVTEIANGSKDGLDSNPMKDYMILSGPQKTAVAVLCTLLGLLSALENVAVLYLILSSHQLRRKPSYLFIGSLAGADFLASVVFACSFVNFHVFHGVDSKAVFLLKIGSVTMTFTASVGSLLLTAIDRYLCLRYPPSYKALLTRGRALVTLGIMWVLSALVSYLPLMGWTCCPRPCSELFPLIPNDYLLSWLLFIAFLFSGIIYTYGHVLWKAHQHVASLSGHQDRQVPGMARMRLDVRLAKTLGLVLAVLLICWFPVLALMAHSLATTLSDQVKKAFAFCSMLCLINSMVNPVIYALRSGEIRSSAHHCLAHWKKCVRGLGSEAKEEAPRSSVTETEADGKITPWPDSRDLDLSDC
T3 sequence (P21554 whole entry): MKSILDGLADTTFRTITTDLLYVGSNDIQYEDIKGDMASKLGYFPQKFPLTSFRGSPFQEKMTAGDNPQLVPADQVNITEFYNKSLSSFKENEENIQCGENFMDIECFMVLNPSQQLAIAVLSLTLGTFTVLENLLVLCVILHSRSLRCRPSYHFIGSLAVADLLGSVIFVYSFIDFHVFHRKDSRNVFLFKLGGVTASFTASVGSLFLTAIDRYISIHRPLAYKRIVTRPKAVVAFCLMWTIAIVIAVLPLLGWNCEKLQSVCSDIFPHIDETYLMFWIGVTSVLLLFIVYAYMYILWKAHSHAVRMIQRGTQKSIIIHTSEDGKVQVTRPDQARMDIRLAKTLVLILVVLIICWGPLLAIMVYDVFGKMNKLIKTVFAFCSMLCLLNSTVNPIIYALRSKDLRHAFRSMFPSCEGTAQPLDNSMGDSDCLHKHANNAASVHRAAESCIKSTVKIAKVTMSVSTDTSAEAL
T1 sequence (P20272 whole entry): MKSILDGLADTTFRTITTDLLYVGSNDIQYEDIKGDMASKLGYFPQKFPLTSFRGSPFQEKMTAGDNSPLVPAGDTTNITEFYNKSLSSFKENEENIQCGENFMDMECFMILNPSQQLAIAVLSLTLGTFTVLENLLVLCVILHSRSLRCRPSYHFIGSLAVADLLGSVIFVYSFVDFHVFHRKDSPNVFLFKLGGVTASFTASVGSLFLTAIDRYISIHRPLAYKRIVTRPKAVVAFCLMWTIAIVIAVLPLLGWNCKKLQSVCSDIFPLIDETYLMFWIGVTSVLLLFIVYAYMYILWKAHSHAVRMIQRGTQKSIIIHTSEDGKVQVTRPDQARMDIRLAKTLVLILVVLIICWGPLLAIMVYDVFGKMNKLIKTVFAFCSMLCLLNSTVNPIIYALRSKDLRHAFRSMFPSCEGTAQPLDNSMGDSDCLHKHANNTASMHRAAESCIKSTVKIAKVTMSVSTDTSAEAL

In general, Ki refers to the equilibrium dissociation constant of an inhibitor or competing ligand from its target. For the molecule `CCCCC/C=C\C/C=C\C/C=C\C/C=C\CCCC(=O)NCCCl`, the Ratio Ki in series [1] was greater than 1430. Moreover, the figures for the Ki in series [2] and in series [3] were 1.4 nM and greater than 2000 nM, respectively.

In turn, `CCc1c(C)cc(C(=O)NC2(C(=O)O)CCCCC2)c(=O)n1Cc1ccc(F)cc1` [S-777469] returned an inhibition constant (Ki) in series [4] of 4600 nM.

What is called EC50 is the concentration giving half of the maximal effect. Take `CN(C1CCOCC1)C(C)(C)C(=O)Nc1cc(C(C)(C)CO)no1`: the EC50 in series [5] was greater than 50000 nM. `O=S(=O)(c1ccc(Cl)cc1)c1cnc2c(NCC3CCOCC3)cccc2c1` registered a half-maximal effective concentration (EC50) in series [6] of less than 1000 nM.

The molecule `CCCn1c(C)c(C(=O)c2cccc3cc(OC)ccc23)c2ccccc21` yielded a Ki in series [7] greater than 10000 nM. Regarding `CCNC(=O)c1c(NC(=O)C23CC4CC(CC(C4)C2)C3)sc2c1CCOC2`, the concentration for a half-maximal effect (EC50) is greater than 1.5 nM in [8] and 21 nM in series [9]. Consider `COc1cccc2c(C(=O)N[C@@H]3C(C)(C)[C@@H]4CC[C@@]3(C)C4)nn(CCN3CCOCC3)c12`, for which the Ki turned out to be 2 nM in [10] and 24 nM in series [7].

In the case of `CC1CN1S(=O)(=O)c1ccc2c(c1)C1(OCCCO1)C(=O)N2CC1CC1` (stereo unspecified), the EC50 in series [11] came to 2 nM. On to `O=C(Nc1sc2c(c1C(=O)N1CCC1)CC1CCC2O1)c1c(F)cccc1C(F)(F)F` (stereo unspecified), for which the Ratio Ki in series [12] is 10. One may read the ED50 as the dose at which the effect has come halfway, by size or by number of responders. A higher ED50 goes with weaker potency. The molecule `CCCCCc1cc(O)c2c(c1)OC(C)(C)[C@@H]1CCC(C)=C[C@@H]21` [DRONABINOL] returned a 50% effective dose (ED50) in series [13] of 0.02 mg/kg. Regarding `CC(C)(CO)c1cc(NC(=O)C(C)(C)S(=O)(=O)C2CCOCC2)on1`, the EC50 in [5] was greater than 50000 nM.

Consider `O=C(N[C@H](CO)c1ccccc1)c1n[nH]c2c1CCCC[C@H]2Cc1cccc(Cl)c1`, for which the half-maximal effective concentration (EC50) in series [14] is greater than 5000 nM; in [15], 12 nM. `CC1OCc2sc(NC(=O)C3C(C)(C)C3(C)C)c(C(=O)N3CC(F)(F)C3)c21` (stereo unspecified): the Ratio Ki in [12] was found to be 10. In the case of `Cc1sc(NC(=O)N2CCCN(C(=O)C3CCC(F)(F)CC3)CC2)nc1C(C)(C)C`, the EC50 in series [16] is 0.7 nM. As for `CCCCCCC(C)(C)c1cc(O)c2c(c1)OC(C)(C)[C@@H]1CC=C(OO)C[C@@H]21`, the Ratio Ki in series [17] is 38. The Ki in series [18] came to 1.2 nM; in series [19] it was 0.032 nM. On to `COc1cccc2c(C(=O)N[C@@H]3C(C)(C)[C@@H]4CC[C@@]3(C)C4)cn(CCN3CCOCC3)c12`, for which the inhibitory constant (Ki) in series [10] was found to be 11 nM; in series [7], 245 nM. On to `COc1ccc(-c2nnc(NC(=O)C(C)(C)S(=O)(=O)C3CCOCC3)[nH]2)cc1`, for which, in series [5], the EC50 is greater than 20000 nM. Turning to `CCCCCCC(C)(C)c1cc(O)c2c(c1)OC(C)(C)C1CCC(=O)CC21` (stereo unspecified), the Ratio Ki in series [12] amounted to 1.2. On to `COc1ccc(C(=O)c2cc3cc(C)n(CCN4CCOCC4)c3s2)cc1`, for which the 50% effective concentration (EC50) in [20] was less than 100 nM. What is called half-life is the time in which the quantity being followed falls by half. High values mean slow loss, low ones fast loss. As usually defined, the Cmax is the maximum level reached in the sampled fluid or tissue. What is called AUC(0-inf) is the area under the concentration-time curve extrapolated to infinity. High values mean more exposure, low ones less exposure. In series [21], `CC(C)(C)NC(=O)c1nn(-c2ccc(Cl)cc2)c2c1C1CCC2C1` (stereo unspecified) had a half-life of 7.3 h. Further, in [22], the concentration peaked (Cmax) at 131 ng/mL. The area under the curve AUC(0-inf) in series [23] worked out at 1550 ng·h/mL. In series [7], `COc1cccc2c(C(=O)c3ccc(Br)c4ccccc34)c(C)n(CCN3CCOCC3)c12` gave a Ki greater than 1000 nM. `CCCCC/C=C\C/C=C\C/C=C\C/C=C\CCCCOC(CO)CO` gave a Ki in [19] of 3000 nM. In [24], `CCCCCCC(C)(C)c1cc(O)c2c(c1)OC(C)(C)[C@@H]1CC=C(CO)C[C@@H]21` yielded an inhibition constant Ki of 0.73 nM. Regarding `CC(C)(C)c1cn(C[C@H]2CCCO2)/c(=N/C(=O)c2cc(C(F)(F)F)ccc2OCc2ccccn2)s1`, the IC50 in series [25] is greater than 27000 nM. Also, in [26], the EC50 worked out at 1 nM.

Regarding `CCCCCn1cc(C(=O)c2cccc3ccccc23)c2ccccc21`, in series [7], the affinity corresponds to a Ki of 9.5 nM.
